The subject of test [1] is LTB4 production. The test is described as follows: LTB4 production inhibition effect on human blood (Calcium ionophore-stimulated whole blood). The conditions noted are these: 10^-5 M Calcium ionophore, Control 20. The format is cell-based. The method, then: LTB4 production inhibition effect on human blood
A 10^-5 M amount of Calcium ionophore was added to human whole blood, followed by adding the compounds listed in Table 2 to evaluate the inhibition effect of these compounds on LTB4 production. The evaluation was carried out in a manner described in Gresele, P., Arnoult, J., Coene, M. C., Deckmyn, H., and Vermylen, J.: Leukotriene B4 production by stimulated whole blood: Comparative studies with isolated polymorphonuclear cells, Biochem. Biophys. Res. Commun. 137: 334-342, 1986.

Test [2] deals with intraocular inflammation by Lipopoly saccharide from E. Coli. The test is described as follows: Effect of eye drops on endotoxin intraocular inflammation by Lipopoly saccharide from E. Coli. The format is in vivo, white male house rabbit. Conditions: 20 hours after LPS. The procedure:
Effect on intraocular inflammation by Lipopoly saccharide from E. Coli
The eye drops of the compound (3), i.e., anthranylic acid amide of 8-(2-naphthyl)-5,6-trans-5,6-methano-7E-octenoic acid was prepared by formulating 3.8 mg of the compound (3) in 0.1 ml of ethanol followed by adding 0.9 ml of teel oil to obtain eye drops containing 0.38% of compound (3). The pH was 6.8.
The eye drops of the compound (7), i.e., 3,4-dimethoxy cinnamic acid ester of 8-(2-naphthyl)-5,6-trans-5,6-methano-7E-octene-1-ol were prepared by dissolving 5.3 mg of the compound (7) in 0.1 ml of ethanol upon heating at 70° C. to 80° C. followed by adding 0.9 ml of teel oil to obtain eye drops containing 0.53% of compound (7). The pH was 6.8.
Into one eye of a white male house rabbit having a body weight of 1.5 to 2.0 kg, were dropped the eye drops of the compounds (3) and (7), at 6 hours, 4 hours, and 1 hour before the experiment, and into the other eye, control eye drops containing 0.1 ml ethanol and 0.9 ml teel oil were dropped in the same manner.
To the vitreous body, 5 μg of lipopoly saccharide from E. coli (commercially available from Sigma) in 50 μl of physiolological saline was dropped. After 20 hours, the aqueous humor was taken and the protein content of the aqueous humor was determined by a Bio-rad assay method and the leucocyte in the aqueous humor was determined by a Neubauer Chamber. The LTB4 in the aqueous humor was determined by the HPLC and RIA methods.

The test system of test [3] is LTB4 production. The test is described as follows: LTB4 production inhibition effect on iris of normal house rabbit. Format: cell-based. The conditions noted are these: Oryctolagus cuniculus, n=4; for inhibition at 100 µM: 10^-4 M; for inhibition at 10 µM: 10^-5 M; for inhibition at 1 µM: 10^-6 M; for inhibition at 0.1 µM: 10^-7 M. The procedure: LTB4 production inhibition effect on iris of normal house rabbit
The iris of a normal house rabbit was enucleated, dipped in 1 cc of Tylord solution for control and 1 cc of Tylord solution containing a certain level of medicament, and after 5 minutes, the Tylord solution was passed through a SEP-pack, the portion containing leucotriene was separated by HPLC, and the LTB4 amount was measured by radioimmunoassay. (n=4)

Molecules are shown by their SMILES.

With `COC(=O)c1ccccc1NC(=O)CCC[C@H]1C[C@@H]1/C=C/c1ccc2ccccc2c1` (relative stereo) [Compound (3), Methyl anthranylate amide of 8-(2-naphthyl)-5,6-trans-5,6-methano-7E-octenoic acid], the “LTB4 production Amount” value in test [1] (10^-5 M) was 11 µg/mL. In addition, the “LTB4 production Amount” value in test [1] (10^-6 M) was found to be 12 µg/mL. Also, the “LTB4 production Amount” value in test [1] (10^-7 M) stood at 15 µg/mL. Further, the Leucocyle in aqueous in test [2] (eye drops 0.38% at 6, 4 and 1 hour before, Control 10.1 × 10^5) is reported as 6.0 × 10^5 cells/ml. In test [2] (eye drops 0.38% at 6, 4 and 1 hour before, Control 30), the Aqueous protein came out at 40 mg/mL. The compound further had an LTB4 in aqueous in test [2] (eye drops 0.38% at 6, 4 and 1 hour before, Control 150) of 7.5 pg/mL. Also, in test [3], testing at 100 µM gave an inhibition of 95%, 10 µM produced 95% inhibition, the inhibition at 1 µM was 89% and the inhibition at 0.1 µM came out at 67%.
In test [3], `O=C(O)CCC[C@H]1C[C@@H]1/C=C/c1ccc2ccccc2c1` (relative stereo) [Reference compound, reference compound] came in with an inhibition at 100 µM of 35% and an inhibition at 10 µM of 0%.
Regarding `COc1ccc(/C=C/C(=O)OCCCC[C@H]2C[C@@H]2/C=C/c2ccc3ccccc3c2)cc1OC` (relative stereo) [Compound (7), 3,4-Dimethoxycinnamic acid ester of 8-(2-naphthyl)-5,6-trans-5,6-methano-7 E-octene-1-ol], the “LTB4 production Amount” value in test [1] (10^-5 M) came to 12 µg/mL. For the same compound, in test [1] (10^-6 M), the “LTB4 production Amount” value was 12 µg/mL. Besides, the “LTB4 production Amount” value in test [1] (10^-7 M) came to 13 µg/mL. Moreover, in test [2] (eye drops 0.53% at 6, 4 and 1 hour before, Control 5.5 × 10^5), the Leucocyle in aqueous is recorded as 7.5 × 10^5 cells/ml. In test [2] (eye drops 0.53% at 6, 4 and 1 hour before, Control 33), the Aqueous protein turned out to be 41 mg/mL. The compound also gave an LTB4 in aqueous in test [2] (eye drops 0.53% at 6, 4 and 1 hour before, Control 320) of 170 pg/mL. In test [3], this compound displayed an inhibition at 100 µM of 92%, an inhibition at 10 µM of 88%, an inhibition at 1 µM of 80% and an inhibition at 0.1 µM of 20%.

These data come from patent US4990650A, “Aromatic derivative and preparation method thereof” (Teijin Limited, priority 1986, dated 1991).
